Calls of active or inactive are those of the source. The rule behind the calls is not given here.
Tests used:
Bile acid receptor [1] = target: T1, Bile acid receptor (Homo sapiens, UniProt Q96RI1); test: Agonist activity at FXR-LBD (unknown origin) assessed as induction of coactivator SRC-1 peptide recruitment measured by TR-FRET assay
T1 sequence (Q96RI1 whole entry): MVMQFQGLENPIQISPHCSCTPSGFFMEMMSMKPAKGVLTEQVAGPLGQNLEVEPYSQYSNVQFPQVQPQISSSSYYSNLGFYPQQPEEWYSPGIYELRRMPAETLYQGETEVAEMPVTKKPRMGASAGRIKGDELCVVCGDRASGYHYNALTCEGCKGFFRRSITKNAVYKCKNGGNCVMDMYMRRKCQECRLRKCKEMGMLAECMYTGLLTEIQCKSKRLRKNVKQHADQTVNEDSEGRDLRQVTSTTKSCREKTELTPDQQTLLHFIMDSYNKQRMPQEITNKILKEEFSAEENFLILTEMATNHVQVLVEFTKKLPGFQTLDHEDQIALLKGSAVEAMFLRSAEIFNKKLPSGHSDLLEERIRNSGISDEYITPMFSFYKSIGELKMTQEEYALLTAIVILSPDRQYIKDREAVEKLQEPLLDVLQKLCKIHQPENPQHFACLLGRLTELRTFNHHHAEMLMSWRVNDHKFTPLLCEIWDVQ

Bile acid receptor [2] = target: T1, Bile acid receptor; test: Agonist activity at human FXR expressed in HEK293T cells by luciferase reporter assay; format: cell-based
Estrogen receptor = target: T2, Estrogen receptor (Homo sapiens, UniProt P03372); test: Agonist activity at estrogen receptor alpha (unknown origin)
T2 sequence (P03372 whole entry): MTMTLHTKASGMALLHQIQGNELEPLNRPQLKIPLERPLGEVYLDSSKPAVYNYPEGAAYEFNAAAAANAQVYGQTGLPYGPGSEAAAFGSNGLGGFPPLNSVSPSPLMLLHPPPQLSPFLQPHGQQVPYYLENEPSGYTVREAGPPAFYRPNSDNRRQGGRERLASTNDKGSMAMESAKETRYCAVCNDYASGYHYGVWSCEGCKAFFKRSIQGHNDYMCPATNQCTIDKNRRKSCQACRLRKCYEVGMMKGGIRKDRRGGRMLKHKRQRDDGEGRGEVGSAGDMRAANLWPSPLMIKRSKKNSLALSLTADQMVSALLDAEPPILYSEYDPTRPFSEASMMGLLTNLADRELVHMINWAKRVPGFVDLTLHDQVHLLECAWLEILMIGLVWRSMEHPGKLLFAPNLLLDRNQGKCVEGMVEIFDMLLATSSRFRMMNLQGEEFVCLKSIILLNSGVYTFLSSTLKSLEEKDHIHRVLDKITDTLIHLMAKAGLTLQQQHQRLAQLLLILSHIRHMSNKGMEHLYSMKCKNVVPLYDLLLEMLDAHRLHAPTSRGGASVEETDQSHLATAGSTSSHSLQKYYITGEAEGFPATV

[3] = target: T3, Bile acid receptor (Rattus norvegicus) (UniProt Q62735); test: In vivo activation of FXR in male Sprague-Dawley rat assessed as fold increase in FGF15 level at 5 mg/kg, po administered once daily for 14 days measured at 6 hrs by ELISA; format: functional, organism-based; conditions: time 14.0 day
T3 sequence (whole entry): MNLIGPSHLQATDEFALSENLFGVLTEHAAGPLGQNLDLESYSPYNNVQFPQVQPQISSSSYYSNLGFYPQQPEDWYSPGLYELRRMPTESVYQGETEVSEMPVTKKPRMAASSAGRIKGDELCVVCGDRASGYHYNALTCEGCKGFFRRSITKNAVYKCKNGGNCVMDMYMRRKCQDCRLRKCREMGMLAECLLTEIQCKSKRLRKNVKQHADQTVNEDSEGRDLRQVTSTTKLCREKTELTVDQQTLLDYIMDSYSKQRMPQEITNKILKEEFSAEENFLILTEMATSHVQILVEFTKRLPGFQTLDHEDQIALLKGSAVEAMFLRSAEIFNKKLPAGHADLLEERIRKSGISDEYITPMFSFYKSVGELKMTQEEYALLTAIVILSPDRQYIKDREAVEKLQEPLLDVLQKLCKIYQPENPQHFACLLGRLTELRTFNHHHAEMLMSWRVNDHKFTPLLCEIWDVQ

Mus musculus [4] = test: Anti-NASH activity in western style diet-induced nonalcoholic steatohepatitis model of male C57BL/6 mouse assessed as reduction in liver fibrosis at 1 mg/kg, po administered once daily from week 32 to 44; format: functional, organism-based
Mus musculus [5] = test: Antifibrotic activity in C57BL/6 mouse model of CCI4-induced liver fibrosis assessed as decrease in serum ALT level at 1 mg/kg, po administered once daily for 4 weeks; format: functional, organism-based
[6] = Clearance in male Beagle dog at 1 mg/kg, iv measured by LC-MS/MS analysis; format: ADME, organism-based, Canis lupus familiaris; conditions: in vivo
[7] = Oral bioavailability in male Beagle dog at 5 mg/kg measured by LC-MS/MS analysis; format: ADME, organism-based, Canis lupus familiaris; conditions: in vivo
[8] = Drug metabolism in bile of Sprague-Dawley rat assessed as production of toxic metabolites at 4.5 mg/kg, po administered as C14-lableled compound with single dose; format: ADME, organism-based; conditions: in vivo
[9] = Drug metabolism in urine of Sprague-Dawley rat assessed as production of toxic metabolites at 4.5 mg/kg, po administered as C14-lableled compound with single dose; format: ADME, organism-based; conditions: in vivo
[10] = Drug metabolism in feces of Sprague-Dawley rat assessed as production of toxic metabolites at 4.5 mg/kg, po administered as C14-lableled compound with single dose; format: ADME, organism-based; conditions: in vivo
[11] = Drug recovery in ileum of male Sprague-Dawley rat at 4.5 mg/kg, po administered as C14-lableled compound and assessed as radioactivity and measured at 0.25 hrs; format: ADME, organism-based; conditions: in vivo
[12] = Drug recovery in plasma of male Sprague-Dawley rat at 4.5 mg/kg, po administered as C14-lableled compound and assessed as radioactivity and measured at 0.25 hrs; format: ADME, organism-based; conditions: in vivo
[13] = Drug recovery in plasma of male Sprague-Dawley rat at 4.5 mg/kg, po administered as C14-lableled compound and assessed as radioactivity and measured at 1 hr; format: ADME, organism-based; conditions: in vivo
[14] = Drug recovery in pancreas of male Sprague-Dawley rat at 4.5 mg/kg, po administered as C14-lableled compound and assessed as radioactivity and measured at 6 hrs; format: ADME, organism-based; conditions: in vivo, BLD = below limit of detection
[15] = Drug recovery in lung of male Sprague-Dawley rat at 4.5 mg/kg, po administered as C14-lableled compound and assessed as radioactivity and measured at 6 hrs; format: ADME, organism-based; conditions: in vivo
[16] = Drug recovery in pancreas of male Sprague-Dawley rat at 4.5 mg/kg, po administered as C14-lableled compound and assessed as radioactivity and measured at 24 hrs; format: ADME, organism-based; conditions: in vivo
[17] = Drug recovery in liver of male Sprague-Dawley rat at 4.5 mg/kg, po administered as C14-lableled compound and assessed as radioactivity and measured at 24 hrs; format: ADME, organism-based; conditions: in vivo
[18] = Drug recovery in stomach of male Sprague-Dawley rat at 4.5 mg/kg, po administered as C14-lableled compound and assessed as radioactivity and measured at 24 hrs; format: ADME, organism-based; conditions: in vivo
[19] = Mutagenecity in Salmonella typhimurium TA97A measured by Ames test; format: toxicity; conditions: salmonella enterica subsp. enterica serovar typhimurium
[20] = Mutagenecity in Salmonella typhimurium TA102 measured by Ames test; format: toxicity; conditions: salmonella enterica subsp. enterica serovar typhimurium
[21] = Mutagenecity in Salmonella typhimurium TA1535 measured by Ames test; format: toxicity; conditions: salmonella enterica subsp. enterica serovar typhimurium

For `O=C(O)c1ccc2c(c1)Oc1ccc(OCc3c(-c4c(Cl)cccc4Cl)noc3C3CC3)nc1C1(CC1)C2`, the EC50 (Bile acid receptor [1]) was 1.37 nM, the EC50 (Bile acid receptor [2]) was 1.55 nM and the EC50 (Estrogen receptor) was > 10000 nM. The fold change (FC) [3] was 18, the Activity (Mus musculus [4]) was “Active” and the Activity (Mus musculus [5]) was “Active”. The clearance [6] was 18.4 mL/min/kg, the bioavailability [7] was 42.3% and the Drug metabolism [8] was “Metabolite_Notdetected”. For the same molecule, the Drug metabolism [9] was “Metabolite_Notdetected”, the Drug metabolism [10] was “Metabolite_Notdetected” and the Drug recovery [11] was 606 ngequiv/g. The Drug recovery [12] was 229 ngequiv/g, the Drug recovery [13] was 305 ngequiv/g and the Drug recovery [14] was “Bld”. For the same molecule, the Drug recovery [15] was 63.4 ngequiv/g, the Drug recovery [16] was 206 ngequiv/g and the Drug recovery [17] was 304 ngequiv/g. The Drug recovery [18] was 108 ngequiv/g, the Activity [19] was “Non-Toxic” and the Activity [20] was “Non-Toxic”. For the same molecule, the Activity [21] was “Non-Toxic”.

Source: ChEMBL document CHEMBL5154690, “Discovery of a tricyclic farnesoid X receptor agonist HEC96719, a clinical candidate for treatment of non-alcoholic steatohepatitis” (Eur J Med Chem, 2022)
